# Assay results reported in patent US12493040B2, “Cancer detection method using sense of smell of nematode” (HIROTSU BIO SCIENCE INC., priority 2013, dated 2025).
# Test system: RNAi-treated eri-1 (mg366) nematodes
# Assay: RNAi screening of olfactory receptor genes: chemotaxis assay of RNAi-treated nematodes to odorants
# Format: in vivo, Caenorhabditis elegans
# Settings: low concentration of attractant
# Procedure, shortened: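 Chemotaxis of adult RNAi-fed eri-1 (mg366) nematodes (30–50 per test) was measured toward low (1 μl, 10^−3 or 10^−4 dilution) or high (1 and 5 μl neat) odorant doses. Knockdown: 4 days feeding on E. coli from Ahringer library with IPTG and ampicillin. Differences called by z score at ±1.96, weaker cutoff ±0.96.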
compound,measurement,setting,value
CCC(C)=O [butanone],chemotaxis index,Control nematodes,0.65 ± 0.021
same,chemotaxis index,srh-10 RNAi-treated nematodes,−0.65
same,chemotaxis index,srh-11 RNAi-treated nematodes,−0.15
same,chemotaxis index,srh-15 RNAi-treated nematodes,0.55
same,chemotaxis index,srh-16 RNAi-treated nematodes,0.74
same,chemotaxis index,srh-18 RNAi-treated nematodes,0.52
same,chemotaxis index,srh-19 RNAi-treated nematodes,0.89
same,chemotaxis index,srh-22 RNAi-treated nematodes,0.19
same,chemotaxis index,srh-23 RNAi-treated nematodes,0.67
same,chemotaxis index,srh-24 RNAi-treated nematodes,0.59
same,chemotaxis index,srh-25 RNAi-treated nematodes,0.72
same,chemotaxis index,srh-27 RNAi-treated nematodes,0.63
same,chemotaxis index,srh-28 RNAi-treated nematodes,0.55
same,chemotaxis index,srh-36 RNAi-treated nematodes,0.37
same,chemotaxis index,srh-37 RNAi-treated nematodes,0.37
same,chemotaxis index,srh-39 RNAi-treated nematodes,0.48
same,chemotaxis index,srh-40 RNAi-treated nematodes,0.94
same,chemotaxis index,srh-41 RNAi-treated nematodes,0.64
same,chemotaxis index,srh-44 RNAi-treated nematodes,0.82
same,chemotaxis index,srh-45 RNAi-treated nematodes,0.73
same,chemotaxis index,srh-46 RNAi-treated nematodes,0.82
same,chemotaxis index,srh-48 RNAi-treated nematodes,0.55
same,chemotaxis index,srh-49 RNAi-treated nematodes,0.80
same,chemotaxis index,srh-50 RNAi-treated nematodes,0.87
same,chemotaxis index,srh-51 RNAi-treated nematodes,0.70
same,chemotaxis index,srh-52 RNAi-treated nematodes,0.69
same,chemotaxis index,srh-55 RNAi-treated nematodes,0.43
same,chemotaxis index,srh-59 RNAi-treated nematodes,0.51
same,chemotaxis index,srh-60 RNAi-treated nematodes,0.79
same,chemotaxis index,srh-61 RNAi-treated nematodes,0.74
same,chemotaxis index,srh-67 RNAi-treated nematodes,0.85
same,chemotaxis index,srh-68 RNAi-treated nematodes,0.67
same,chemotaxis index,srh-69 RNAi-treated nematodes,0.66
same,chemotaxis index,srh-70 RNAi-treated nematodes,0.43
same,chemotaxis index,srh-71 RNAi-treated nematodes,0.76
same,chemotaxis index,srh-72 RNAi-treated nematodes,0.58
same,chemotaxis index,srh-74 RNAi-treated nematodes,0.76
same,chemotaxis index,srh-75 RNAi-treated nematodes,0.76
same,chemotaxis index,srh-77 RNAi-treated nematodes,0.70
same,chemotaxis index,srh-79 RNAi-treated nematodes,0.58
same,chemotaxis index,srh-80 RNAi-treated nematodes,0.64
same,chemotaxis index,srh-82 RNAi-treated nematodes,0.79
same,chemotaxis index,srh-83 RNAi-treated nematodes,0.71
same,chemotaxis index,srh-97 RNAi-treated nematodes,0.80
same,chemotaxis index,srh-99 RNAi-treated nematodes,0.75
same,chemotaxis index,srh-100 RNAi-treated nematodes,0.80
same,chemotaxis index,srh-104 RNAi-treated nematodes,0.48
same,chemotaxis index,srh-105 RNAi-treated nematodes,0.76
same,chemotaxis index,srh-109 RNAi-treated nematodes,0.89
same,chemotaxis index,srh-111 RNAi-treated nematodes,0.59
same,chemotaxis index,srh-113 RNAi-treated nematodes,0.30
same,chemotaxis index,srh-115 RNAi-treated nematodes,0.70
same,chemotaxis index,srh-116 RNAi-treated nematodes,0.56
same,chemotaxis index,srh-118 RNAi-treated nematodes,0.60
same,chemotaxis index,srh-119 RNAi-treated nematodes,0.50
same,chemotaxis index,srh-120 RNAi-treated nematodes,0.78
same,chemotaxis index,srh-122 RNAi-treated nematodes,0.58
same,chemotaxis index,srh-123 RNAi-treated nematodes,0.84
same,chemotaxis index,srh-125 RNAi-treated nematodes,0.76
same,chemotaxis index,srh-128 RNAi-treated nematodes,0.69
same,chemotaxis index,srh-129 RNAi-treated nematodes,0.63
same,chemotaxis index,srh-130 RNAi-treated nematodes,0.82
same,chemotaxis index,srh-214 RNAi-treated nematodes,0.85
same,chemotaxis index,srh-216 RNAi-treated nematodes,0.86
same,chemotaxis index,srh-217 RNAi-treated nematodes,0.69
same,chemotaxis index,srh-220 RNAi-treated nematodes,0.81
same,chemotaxis index,srh-222 RNAi-treated nematodes,0.62
same,chemotaxis index,srh-223 RNAi-treated nematodes,0.88
same,chemotaxis index,srh-227 RNAi-treated nematodes,0.37
same,chemotaxis index,srh-229 RNAi-treated nematodes,0.60
same,chemotaxis index,srh-233 RNAi-treated nematodes,0.50
same,chemotaxis index,srh-235 RNAi-treated nematodes,0.76
same,chemotaxis index,srh-236 RNAi-treated nematodes,0.71
same,chemotaxis index,srh-239 RNAi-treated nematodes,0.59
same,chemotaxis index,srh-241 RNAi-treated nematodes,0.63
same,chemotaxis index,srh-243 RNAi-treated nematodes,0.72
same,chemotaxis index,srh-244 RNAi-treated nematodes,0.73
same,chemotaxis index,srh-247 RNAi-treated nematodes,0.85
same,chemotaxis index,srh-250 RNAi-treated nematodes,0.79
same,chemotaxis index,srh-251 RNAi-treated nematodes,0.92
same,chemotaxis index,srh-252 RNAi-treated nematodes,0.86
same,chemotaxis index,srh-258 RNAi-treated nematodes,0.56
same,chemotaxis index,srh-261 RNAi-treated nematodes,0.60
same,chemotaxis index,srh-264 RNAi-treated nematodes,0.56
same,chemotaxis index,srh-266 RNAi-treated nematodes,−0.31
same,chemotaxis index,srh-274 RNAi-treated nematodes,−0.59
same,chemotaxis index,srh-275 RNAi-treated nematodes,−0.29
same,chemotaxis index,srh-276 RNAi-treated nematodes,0.30
same,chemotaxis index,srh-277 RNAi-treated nematodes,−0.09
same,chemotaxis index,srh-279 RNAi-treated nematodes,0.89
same,chemotaxis index,srh-281 RNAi-treated nematodes,0.49
same,chemotaxis index,srh-282 RNAi-treated nematodes,0.80
same,chemotaxis index,srh-283 RNAi-treated nematodes,0.65
same,chemotaxis index,srh-284 RNAi-treated nematodes,0.73
same,chemotaxis index,srh-291 RNAi-treated nematodes,0.86
same,chemotaxis index,srh-292 RNAi-treated nematodes,0.80
same,chemotaxis index,srh-293 RNAi-treated nematodes,0.75
same,chemotaxis index,srh-297 RNAi-treated nematodes,0.84
same,chemotaxis index,srh-298 RNAi-treated nematodes,0.65
same,chemotaxis index,srh-308 RNAi-treated nematodes,0.04
